Reference: patent publication US12454514B2, “Quinazolinone compounds” (Cerepeut, Inc., priority 2019, dated 2025)

System: Molt-4 cells
Assay: CellTiter-Glo Luminescent Cell Viability Assay (growth inhibition, 72 hour incubation)
Type: cell-based
Conditions: Homo sapiens, 72 hours treatment, CellTiter Glo luminescence
Excerpt: CellTiter-Glo Luminescent Cell Viability Assay Kit was obtained from Promega. RPMI 1640 was obtained from Invitrogen. Fetal Bovine Serum (FBS) was obtained from Corning. L-glutamine was obtained from Invitrogen. 100× Penicillin-Streptomycin was obtained from HyClone. 0.05% Trypsin-EDTA (T-E) was obtained from Invitrogen. DPBS was obtained from Corning. DMSO was obtained from Sigma. Black 384 well plates were obtained from Greiner. 96-well V bottom plates were obtained from Axygen. For cell seeding on Day “−1”, the density of Molt-4 cells was adjusted according to supplier-recommended information. 50 μL cells were seeded in four 384-well-plates, and 50 μL DPBS was added to the edge wells. On Day 0, test compounds were dissolved in DMSO and stored in a nitrogen cabinet. The stock concentration of the test compounds was 120 mM. The stock concentration of the reference compounds was 10 mM. Test compounds (125 nL in DMSO) were added to the wells and serially diluted by three fold, providing 10 doses in each series with a maximum concentration of 300 μM. Equal volumes of DMSO without test compound were transferred to control rows in the well plate. Using this procedure, the DMSO concentration across the well plate was 0.25% (v/v). On Day 3 (after the cells were treated with the compounds for 72 hours), the plates were equilibrated at room temperature for approximately 30 minutes. 25 μL of CellTiter Glo reagent was added to each well, and the luminescence in each well was measured after 10 min using an ENVISION fluorescence plate reader (PerkinElmer). The calculation formula used for data analysis was: Inhibition %=(Max−Sample Value)/Max*100. Curves were fitted by Prism with a Sigmoidal dose-response (variable slope) model and generated by 4 Parameter Logistic Model or Sigmoidal Dose-Response Model, Y=Bottom+(Top−Bottom)/(1+10^((log EC50−x)*HillSlope)). To evaluate the anti-tumor activity of the compounds, the growth inhibitory effect of the compound was measured in various human cancer cell lines after 72 hour incubation. In the assays, the viability of the Molt-4 cells was greater than 85% during the initial cell plating. All the cell plates met the criteria that the coefficient of variation (CV)<10%. Observed IC50 values are summarized below, along with the observed IC50 value for reference compound 6-chloro-3-(2,4-dichloro-5-methoxyphenyl)-2-mercapto-7-methoxyquinazolin-4(3H)-one.

Row | SMILES | IC50 [nM]
1 | COc1cc2nc(S)n(-c3cc(OC)c(OC)cc3Cl)c(=O)c2cc1Cl [Compound 1, 6-Chloro-3-(2-chloro-4,5-dimethoxyphenyl)-2-mercapto-7-methoxyquinazolin-4(3H)-one] | > 30000
2 | COc1cc(-n2c(S)nc3cc(OC)c(Cl)cc3c2=O)c(Cl)cc1F [Compound 2, 6-Chloro-3-(2-chloro-4-fluoro-5-methoxyphenyl)-2-mercapto-7-methoxyquinazolin-4(3H)-one] | 3000 to 30000
3 | COc1cc(-n2c(S)nc3cc(OC)c(Cl)cc3c2=O)c(OC)cc1Cl [Compound 3, 6-Chloro-3-(4-chloro-2,5-dimethoxyphenyl)-2-mercapto-7-methoxyquinazolin-4(3H)-one] | 3000 to 30000
4 | COc1cc2nc(S)n(-c3cc(F)c(Cl)cc3Cl)c(=O)c2cc1Cl [Compound 4, 6-Chloro-3-(2,4-dichloro-5-fluorophenyl)-2-mercapto-7-methoxyquinazolin-4(3H)-one] | 3000 to 30000
5 | COc1ccc2c(=O)n(-c3cc(OC)c(Cl)cc3Cl)c(S)nc2c1 [Compound 5, 3-(2,4-dichloro-5-methoxyphenyl)-2-mercapto-7-methoxyquinazolin-4(3H)-one] | 3000 to 30000
6 | COc1cc(-n2c(S)nc3cc(OC)c(OC)cc3c2=O)c(Cl)cc1Cl [Compound 6, 3-(2,4-dichloro-5-methoxyphenyl)-2-mercapto-6,7-dimethoxyquinazolin-4(3H)-one] | < 3000
7 | COc1cc2nc(S)n(-c3cc(OC)c(Cl)cc3Cl)c(=O)c2cc1O [Compound 7, 3-(2,4-Dichloro-5-methoxyphenyl)-6-hydroxy-2-mercapto-7-methoxyquinazolin-4(3H)-one] | < 3000
8 | COc1cc2nc(S)n(-c3cc(OC)c(Cl)cc3Cl)c(=O)c2cc1N [Compound 8, 6-Amino-3-(2,4-dichloro-5-methoxyphenyl)-2-mercapto-7-methoxyquinazolin-4(3H)-one] | < 3000
9 | COc1cc(-n2c(S)nc3cc(OC)c(C4CC4)cc3c2=O)c(Cl)cc1Cl [Compound 9, 6-Cyclopropyl-3-(2,4-dichloro-5-methoxyphenyl)-2-mercapto-7-methoxyquinazolin-4(3H)-one] | < 3000
10 | Cc1cc(-n2c(S)nc3ccc(Cl)cc3c2=O)c(Cl)cc1Cl [Compound 10, 6-chloro-3-(2,4-Dichloro-5-methylphenyl)-2-mercaptoquinazolin-4(3H)-one] | 3000 to 30000
11 | COc1cc(-n2c(S)nc3cc(C4CC4)c(Cl)cc3c2=O)c(Cl)cc1Cl [Compound 11, 6-Chloro-7-cyclopropyl-3-(2,4-dichloro-5-methoxyphenyl)-2-mercaptoquinazolin-4(3H)-one] | 3000 to 30000
12 | C=Cc1c(OC)c(Cl)cc2c(=O)n(-c3cc(OC)c(Cl)cc3Cl)c(S)nc12 [Compound 12, 6-Chloro-3-(2,4-dichloro-5-methoxyphenyl)-2-mercapto-7-methoxy-8-vinylquinazolin-4(3H)-one] | > 30000
13 | COc1cc(-n2c(S)nc3c(C4CC4)c(OC)c(Cl)cc3c2=O)c(Cl)cc1Cl [Compound 13, 6-Chloro-8-cyclopropyl-3-(2,4-dichloro-5-methoxyphenyl)-2-mercapto-7-methoxyquinazolin-4(3H)-one] | 3000 to 30000
14 | COc1cc(-n2c(S)nc3cc(OC)c(Cl)cc3c2=O)c(Cl)cc1Cl [Ref. 1, 6-chloro-3-(2,4-dichloro-5-methoxyphenyl)-2-mercapto-7-methoxyquinazolin-4(3H)-one, reference compound] | 3000 to 30000
